# Results: patent US20050058611A1, “Preventing and/or combating collagen fiber degradation induced under conditions of natural exposure to sunlight” (L'OREAL, priority 2003, published 2005)
# What was measured:
# [1] = tested on: production of MMP-1 by normal human epidermal keratinocytes; test: MMP-1 production by normal human epidermal keratinocytes cultured on plastic, ELISA; assay type: cell-based; conditions: TPA 20 ng/ml, positive control; cell culture supernatant 24 hours after treatment
# Method: FIG. 5 illustrates the production of MMP-1 by normal human epidermal keratinocytes. The cells cultured on plastic are exposed to SSR or treated with TPA (20 ng/ml). The MMP-1 content is evaluated by ELISA 24 hours after treatment in the cell culture supernatant.
# Human keratinocytes are isolated from normal human skin (breast surgery) and cultured on a nourishing layer of mitomycin-treated 3T3 mouse fibroblasts.
# The MMP-1 content is measured by ELISA (Biotrak kit RPN 2610, Amersham Biotech, France) according to the supplier's instructions.
# To determine whether the irradiation of SSR type could also modulate the production of MMP-1 by keratinocytes growing on plastic, the cells were exposed to an SSR radiation. The MMP-1 extracellular contents were quantified 24 hours after UV radiation.
# [2] = tested on: production of MMP-1 by normal human fibroblasts; test: Keratinocyte conditioned medium transferred onto fibroblasts; MMP-1 production by ELISA; assay type: cell-based; conditions: for Production of MMP-1: sodium butyrate 3 mM, fibroblast culture supernatant 24 hours after transfer
# Source text: Normal human keratinocytes cultured as a monolayer on plastic were subjected to a UV-B radiation (10 mJ/cm^2). The experiment may also be performed in the presence of an SSR as defined in Example 1.
# A Philips TL 20 W/12 tube equipped with a Kodacel filter to remove the wavelengths below 290 nm is used as UV-B source.
# Just before irradiation, the culture medium of the sub-confluent cells (80-90% of confluence) is replaced with a PBS phosphate buffer to avoid the generation of phototoxic products by the medium. Under these conditions, no loss of viability of the cells is observed at the UV doses used.
# After irradiation, the cells were placed in contact with an MEM culture medium free of serum and of growth factor, which are known to interfere with the detection or production of MMP-1, containing or not containing sodium butyrate NaBu (3 mM).
# The conditioned medium of the keratinocytes (irradiated or not, in the presence or absence of sodium butyrate) was taken up 24 hours after irradiation and placed in contact with normal human fibroblasts.
# The production of MMP-1 detected 24 hours later in the fibroblast culture supernatant was quantified by means of the “Biotrak MMP-1 human ELISA system” detection kit sold by Amersham, according to the supplier's indications.
# The results are read using a LabSystems microplate reader equipped with a 450 nm filter.
# The amount of MMP-1 is calculated relative to a calibration range prepared with a standard supplied with the kit, and is expressed in ng/ml.
Compound,MMP-1 production by keratinocytes [1],Effect on the photoinduced stimulation of MMP-1 production ([2]; UV-B irradiated keratinocyte conditioned medium),Production of MMP-1 ([2]; irradiated (UV-B 10 mJ/cm^2) keratinocyte conditioned medium),"Inhibition of basal production of MMP-1 (factor) ([2]; non-irradiated condition, versus control conditioned medium)",Production of MMP-1 ([2]; non-irradiated keratinocyte conditioned medium)
CCCCCCCCCCCCCC(=O)O[C@@H]1[C@@H](C)[C@@]2(O)[C@@H](C=C(CO)C[C@]3(O)C(=O)C(C)=C[C@@H]23)[C@H]2C(C)(C)[C@]12OC(C)=O [TPA],leads to an accumulation of MMP-1 production,,,,
CCCC(=O)[O-].[Na+] [sodium butyrate],,capable of preventing this stimulatory effect on MMP-1 production,16.97 ± 3.7 ng/mL,3,4.84 ± 0.36 ng/mL
